For 14 molecules, Ki results are on record in ChEMBL document CHEMBL1135886, “Substituted diphenyl sulfides as selective serotonin transporter ligands: synthesis and in vitro evaluation” (J Med Chem, 2002).

Structures are written as SMILES.

Sodium-dependent serotonin transporter, sequence (P31652 whole entry): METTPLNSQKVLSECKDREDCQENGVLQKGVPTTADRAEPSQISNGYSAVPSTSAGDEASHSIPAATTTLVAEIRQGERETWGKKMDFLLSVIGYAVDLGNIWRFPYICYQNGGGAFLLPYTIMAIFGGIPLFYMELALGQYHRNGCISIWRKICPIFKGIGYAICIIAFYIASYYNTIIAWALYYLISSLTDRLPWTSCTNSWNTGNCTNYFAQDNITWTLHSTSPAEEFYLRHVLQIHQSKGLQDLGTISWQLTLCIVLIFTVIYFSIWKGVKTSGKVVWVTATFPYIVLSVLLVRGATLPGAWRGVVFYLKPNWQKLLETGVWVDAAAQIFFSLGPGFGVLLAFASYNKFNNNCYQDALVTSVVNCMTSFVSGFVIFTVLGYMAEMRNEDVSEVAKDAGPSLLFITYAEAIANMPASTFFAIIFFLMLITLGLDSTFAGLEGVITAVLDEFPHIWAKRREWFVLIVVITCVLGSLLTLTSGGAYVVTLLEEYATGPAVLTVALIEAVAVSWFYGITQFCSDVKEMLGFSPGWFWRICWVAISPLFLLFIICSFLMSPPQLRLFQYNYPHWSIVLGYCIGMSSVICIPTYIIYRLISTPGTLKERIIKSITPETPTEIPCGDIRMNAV
Norepinephrine transporter, sequence (Q9WTR4 whole entry): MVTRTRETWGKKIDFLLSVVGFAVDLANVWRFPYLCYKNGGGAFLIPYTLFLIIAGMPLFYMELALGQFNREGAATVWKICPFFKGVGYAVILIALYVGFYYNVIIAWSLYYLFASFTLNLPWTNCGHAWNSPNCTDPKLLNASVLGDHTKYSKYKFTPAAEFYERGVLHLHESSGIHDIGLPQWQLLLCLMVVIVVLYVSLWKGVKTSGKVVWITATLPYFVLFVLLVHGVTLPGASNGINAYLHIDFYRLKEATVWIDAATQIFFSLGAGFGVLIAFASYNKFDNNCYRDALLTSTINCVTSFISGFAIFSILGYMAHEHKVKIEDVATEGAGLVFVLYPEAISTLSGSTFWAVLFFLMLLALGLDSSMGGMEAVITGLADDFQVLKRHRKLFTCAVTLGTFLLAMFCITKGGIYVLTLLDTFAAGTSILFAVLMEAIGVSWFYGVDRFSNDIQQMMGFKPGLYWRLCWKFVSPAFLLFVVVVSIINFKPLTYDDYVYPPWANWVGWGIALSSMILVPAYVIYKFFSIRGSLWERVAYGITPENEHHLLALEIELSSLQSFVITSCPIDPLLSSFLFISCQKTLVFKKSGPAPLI

One assay has as its target Sodium-dependent serotonin transporter (Rattus norvegicus, UniProt P31652). Description: Inhibition of [3H]paroxetine binding to serotonin transporter (SERT) of rat cortical membrane.
In the case of `CN(C)C(=O)c1ccccc1Sc1ccc(Br)cc1C=O`, the inhibitory constant (Ki) (as a rule, the equilibrium dissociation constant of an inhibitor or competing ligand from its target) was above 1000 nM.

On to `COCc1cc(Br)ccc1Sc1ccccc1CN(C)C`, for which the Ki turned out to be 2.75 nM.

Molecule `CN(C)Cc1ccccc1Sc1ccc(Br)cc1N` registered a Ki of 2.23 nM.

`CN(CCF)Cc1ccccc1Sc1ccc(I)cc1N` showed a Ki of 19.3 nM.

In turn, `COCc1cc(I)ccc1Sc1ccccc1CN(C)C` yielded a Ki of 2.5 nM.

With `Cc1ccc(Sc2ccccc2CN(C)C)c(N)c1`, the Ki was 1.65 nM.

`CN(C)C(=O)c1ccccc1Sc1ccc(F)cc1C=O` returned a Ki of 695 nM.

The molecule `CNCc1ccccc1Sc1ccc(I)cc1CO` registered a Ki of 0.98 nM.

In the case of `CN(C)Cc1ccccc1Sc1ccc(/C=C/I)cc1N`, the affinity, expressed as Ki, was 53.3 nM.

On to `CN(C)Cc1ccccc1Sc1ccc(F)cc1CO`, for which affinity was put at a Ki of 7.96 nM.

The molecule `CN(C)Cc1ccccc1Sc1ccc(Br)cc1CO` displayed a Ki of 1.92 nM.

Molecule `CNCc1ccccc1Sc1ccc(I)cc1N` gave a Ki of 1.25 nM.

On to `CNCc1ccccc1Sc1ccc(Br)cc1N`, for which the Ki was found to be 1.49 nM.

Another assay has as its target Norepinephrine transporter (Rattus norvegicus, UniProt Q9WTR4). Description: Inhibition of [3H]nisoxetine binding to norepinephrine transporter (NET) of rat cortical homogenates.
The molecule `CN(C)C(=O)c1ccccc1Sc1ccc(Br)cc1C=O` displayed a Ki above 1000 nM.

Regarding `COCc1cc(Br)ccc1Sc1ccccc1CN(C)C`, affinity was put at a Ki of 326 nM.

The molecule `CN(C)Cc1ccccc1Sc1ccc(Br)cc1N` registered a Ki of 107 nM.

`CN(C)Cc1ccccc1Sc1ccc(I)cc1N` returned a Ki of 683 nM.

For the molecule `CN(CCF)Cc1ccccc1Sc1ccc(I)cc1N`, the Ki was above 1000 nM.

The molecule `COCc1cc(I)ccc1Sc1ccccc1CN(C)C` displayed a Ki of 212 nM.

Take `Cc1ccc(Sc2ccccc2CN(C)C)c(N)c1`: affinity was put at a Ki of 325 nM.

In turn, `CN(C)C(=O)c1ccccc1Sc1ccc(F)cc1C=O` had a Ki above 1000 nM.

`CNCc1ccccc1Sc1ccc(I)cc1CO` returned a Ki of 12.8 nM.

The molecule `CN(C)Cc1ccccc1Sc1ccc(/C=C/I)cc1N` gave a Ki of 80.2 nM.

Molecule `CN(C)Cc1ccccc1Sc1ccc(F)cc1CO` had a Ki of 28.4 nM.

`CN(C)Cc1ccccc1Sc1ccc(Br)cc1CO`: the Ki stood at 5.8 nM.

For the molecule `CNCc1ccccc1Sc1ccc(I)cc1N`, the affinity corresponds to a Ki of 714 nM.

Molecule `CNCc1ccccc1Sc1ccc(Br)cc1N` displayed an inhibition constant (Ki) of 107 nM.

The target in the next assay is Sodium-dependent dopamine transporter (Rattus norvegicus, UniProt P23977). Description: Inhibition of [3H]-GBR-12,935 binding to dopamine transporter (DAT) of rat striatal membranes. The format is cell membranes, Membrane.
Sodium-dependent dopamine transporter, sequence (P23977 whole entry): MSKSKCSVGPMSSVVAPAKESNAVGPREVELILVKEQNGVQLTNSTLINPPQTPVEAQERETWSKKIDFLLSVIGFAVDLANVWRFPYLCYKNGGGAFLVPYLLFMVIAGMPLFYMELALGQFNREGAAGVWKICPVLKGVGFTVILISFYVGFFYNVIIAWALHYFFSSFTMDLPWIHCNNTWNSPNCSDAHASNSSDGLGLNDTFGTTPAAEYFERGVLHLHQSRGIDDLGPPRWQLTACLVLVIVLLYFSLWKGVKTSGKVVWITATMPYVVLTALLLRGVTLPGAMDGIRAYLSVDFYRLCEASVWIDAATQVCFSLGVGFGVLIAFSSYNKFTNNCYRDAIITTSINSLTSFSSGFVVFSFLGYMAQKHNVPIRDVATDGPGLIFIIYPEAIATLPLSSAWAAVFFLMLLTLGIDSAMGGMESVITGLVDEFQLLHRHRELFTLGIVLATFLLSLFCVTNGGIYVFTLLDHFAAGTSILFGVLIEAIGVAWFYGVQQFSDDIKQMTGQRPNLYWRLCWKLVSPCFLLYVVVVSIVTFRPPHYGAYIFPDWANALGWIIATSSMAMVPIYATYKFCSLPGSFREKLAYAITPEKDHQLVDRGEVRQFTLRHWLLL
`CN(C)C(=O)c1ccccc1Sc1ccc(Br)cc1C=O` returned a Ki above 1000 nM.

`COCc1cc(Br)ccc1Sc1ccccc1CN(C)C` had a Ki above 1000 nM.

Turning to `CN(C)Cc1ccccc1Sc1ccc(Br)cc1N`, the inhibition constant (Ki) stood at 171 nM.

The molecule `CN(C)Cc1ccccc1Sc1ccc(I)cc1N` returned a Ki above 1000 nM.

Take `CN(CCF)Cc1ccccc1Sc1ccc(I)cc1N`: the Ki is above 1000 nM.

Molecule `COCc1cc(I)ccc1Sc1ccccc1CN(C)C` registered a Ki of 172 nM.

Consider `Cc1ccc(Sc2ccccc2CN(C)C)c(N)c1`, for which the Ki is above 1000 nM.

`CN(C)C(=O)c1ccccc1Sc1ccc(F)cc1C=O` displayed an inhibition constant (Ki) above 1000 nM.

Consider `CNCc1ccccc1Sc1ccc(I)cc1CO`, for which the Ki was 760 nM.

`CN(C)Cc1ccccc1Sc1ccc(/C=C/I)cc1N` displayed a Ki above 1000 nM.

`CN(C)Cc1ccccc1Sc1ccc(F)cc1CO` returned a Ki of 339 nM.

Turning to `CN(C)Cc1ccccc1Sc1ccc(Br)cc1CO`, the Ki was found to be 950 nM.

The molecule `CNCc1ccccc1Sc1ccc(I)cc1N` had a Ki of 818 nM.

`CNCc1ccccc1Sc1ccc(Br)cc1N` came in with a Ki of 171 nM.
